This test has as its target T1, GFP-HIBCH (3-hydroxyisobutyryl-CoA hydrolase) (Homo sapiens, UniProt Q6NVY1).
T1 construct: GFP fusion of HIBCH
T1 sequence (Q6NVY1 1-386): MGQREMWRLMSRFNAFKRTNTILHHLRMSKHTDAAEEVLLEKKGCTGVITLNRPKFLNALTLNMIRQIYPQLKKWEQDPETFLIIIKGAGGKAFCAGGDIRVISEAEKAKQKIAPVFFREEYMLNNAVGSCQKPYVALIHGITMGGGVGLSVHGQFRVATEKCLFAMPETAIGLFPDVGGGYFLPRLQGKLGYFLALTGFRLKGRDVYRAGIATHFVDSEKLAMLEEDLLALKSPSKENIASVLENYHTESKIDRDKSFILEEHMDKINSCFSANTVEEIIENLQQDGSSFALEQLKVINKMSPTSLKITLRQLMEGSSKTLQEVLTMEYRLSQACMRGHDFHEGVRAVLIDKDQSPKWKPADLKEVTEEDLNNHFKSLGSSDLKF
Put plainly: microscale thermophoresis. It counts as binding. As to conditions: GFP-tagged HIBCH; fit of three independent measurements. On the technique in general: Microscale thermophoresis detects binding through changes in fluorescence in a small temperature gradient.

Each structure is given as a SMILES string.

The text below walks through data of PMC6692300, “Targeting HIBCH to reprogram valine metabolism for the treatment of colorectal cancer” (Cell Death & Disease, 2019).

The term Kd denotes a measure of binding affinity in units of concentration. Read a low Kd as higher affinity. `CCCCCCCCCCCCOC(=O)[C@@H](C)[C@@]1(O)[C@@H](O[C@@H]2OC[C@H](O)[C@H](O[C@@H]3OC[C@@H](O)[C@H](O)[C@H]3OC(=O)c3ccc(OC)cc3)[C@H]2OC(C)=O)C[C@H]2[C@@H]3CC=C4C[C@@H](O)CC[C@]4(C)[C@H]3CC[C@@]21C` [SBF-1] registered a Kd of 35.9 µM.
